In brackets after ≈: the same amount, converted by molar mass. Where two headings read alike, the source gives them in different places.
Key:
Assay type in all cases: cell-based
[1] = system: S. aureus; experiment: agar dilution test, S. aureus; settings: Staphylococcus aureus, complete growth inhibition, read-out: Minimum Inhibitory Concentration, Sa
From the text: (§1) In representative operations, the products of the invention when tested for antimicrobial activity using conventional agar dilution tests gave complete growth inhibition against the following organisms at the indicated concentrations in parts per million: […]

[2] = system: S. typhosa; experiment: agar dilution test, S. typhosa; settings: read-out: Minimum Inhibitory Concentration, St
From the text: as §1

[3] = system: A. aerogenes; experiment: agar dilution test, A. aerogenes; settings: Klebsiella aerogenes, read-out: Minimum Inhibitory Concentration, Aa
From the text: as §1

[4] = system: P. aeruginosa; experiment: agar dilution test, P. aeruginosa; settings: Pseudomonas aeruginosa, read-out: Minimum Inhibitory Concentration, Pa
From the text: as §1

[5] = system: C. pelliculosa; experiment: agar dilution test, C. pelliculosa; settings: Hansenula anomala, read-out: Minimum Inhibitory Concentration, Cp
From the text: as §1

[6] = system: S. cerevisiae; experiment: agar dilution test, S. cerevisiae; settings: Saccharomyces cerevisiae, read-out: Minimum Inhibitory Concentration, Sc
From the text: as §1

[7] = system: A. niger; experiment: agar dilution test, A. niger; settings: Aspergillus niger, read-out: Minimum Inhibitory Concentration, An
From the text: as §1

[8] = system: P. chrysogenum; experiment: agar dilution test, P. chrysogenum; settings: Penicillium chrysogenum, read-out: Minimum Inhibitory Concentration, Pen
From the text: as §1

[9] = A. aerogenes, agar dilution, complete growth inhibition
[10] = P. aeruginosa, agar dilution, complete growth inhibition
[11] = C. pelliculosa, agar dilution, complete growth inhibition
[12] = S. cerevisiae, agar dilution, complete growth inhibition
[13] = A. niger, agar dilution, complete growth inhibition
[14] = P. chrysogenum, agar dilution, complete growth inhibition

SMILES | MIC [1] | MIC [2] | MIC [3, 9] | MIC [4, 10] | MIC [5, 11] | MIC [6, 12] | MIC [7, 13] | MIC [8, 14] | MIC ([2]; S. typhosa, agar dilution, complete growth inhibition) | MIC [3] | MIC [4] | MIC [5] | MIC [6] | MIC [7] | MIC [8]
O=C(Nc1cc(Cl)ccc1Cl)N1CN2CN(C/C=C\Cl)CN(C2)C1 [Example 3 f)] | 75 µg/mL (≈ 192 µM) | 50 µg/mL (≈ 128 µM) | 75 µg/mL (≈ 192 µM) | 100 µg/mL (≈ 256 µM) | 250 µg/mL (≈ 640 µM) | 250 µg/mL (≈ 640 µM) | 500 µg/mL (≈ 1280 µM) | 250 µg/mL (≈ 640 µM) | – | – | – | – | – | – | –
S=C(Nc1ccccc1)N1CN2CN(C/C=C\Cl)CN(C2)C1 [Example 2, N-Phenyl-3-.[.Thiocarboxamide.]..Iadd.Methanethioamide.Iaddend.-7-Cis-(3-Chloro-2-Propenyl)-1,3,5,7-Tetraazabicyclo(3,3,1)Nonane] | 75 µg/mL (≈ 222 µM) | 25 µg/mL (≈ 74 µM) | 50 µg/mL (≈ 148 µM) | 75 µg/mL (≈ 222 µM) | > 500 µg/mL | 250 µg/mL (≈ 740 µM) | 250 µg/mL (≈ 740 µM) | 500 µg/mL (≈ 1480 µM) | – | – | – | – | – | – | –
O=C(Nc1ccc(Br)cc1)N1CN2CN(C/C=C\Cl)CN(C2)C1 [Example 3 e)] | 100 µg/mL (≈ 250 µM) | 25 µg/mL (≈ 62.4 µM) | 100 µg/mL (≈ 250 µM) | 250 µg/mL (≈ 624 µM) | 250 µg/mL (≈ 624 µM) | 250 µg/mL (≈ 624 µM) | 500 µg/mL (≈ 1250 µM) | 250 µg/mL (≈ 624 µM) | – | – | – | – | – | – | –
O=C(Nc1ccc(Cl)c(Cl)c1)N1CN2CN(C/C=C\Cl)CN(C2)C1 [Example 3 g)] | 50 µg/mL (≈ 128 µM) | 25 µg/mL (≈ 64 µM) | 250 µg/mL (≈ 640 µM) | 250 µg/mL (≈ 640 µM) | 250 µg/mL (≈ 640 µM) | 250 µg/mL (≈ 640 µM) | 500 µg/mL (≈ 1280 µM) | 250 µg/mL (≈ 640 µM) | – | – | – | – | – | – | –
Cl/C=C\C[N+]12CN3CN(CN(C3)C1)C2.[Cl-] [Cis, cis-1-(3-chloro-2-propenyl)-3,5,7-triaza-1-azoniatricyclo (3,3,1,1^3,7) decane chloride, reference compound] | 50 µg/mL | – | – | – | – | – | – | – | 25 µg/mL | 50 µg/mL | 75 µg/mL | 500 µg/mL | 250 µg/mL | > 500 µg/mL | 500 µg/mL
Cc1ccc(NC(=O)N2CN3CN(C/C=C\Cl)CN(C3)C2)cc1 [Example 3 b)] | 50 µg/mL (≈ 149 µM) | 25 µg/mL (≈ 74.4 µM) | 50 µg/mL (≈ 149 µM) | 50 µg/mL (≈ 149 µM) | 250 µg/mL (≈ 744 µM) | 250 µg/mL (≈ 744 µM) | 250 µg/mL (≈ 744 µM) | 100 µg/mL (≈ 298 µM) | – | – | – | – | – | – | –
CCCCNC(=S)N1CN2CN(C/C=C\Cl)CN(C2)C1 [Example 3 o)] | 100 µg/mL (≈ 315 µM) | 75 µg/mL (≈ 236 µM) | 100 µg/mL (≈ 315 µM) | 250 µg/mL (≈ 786 µM) | > 500 µg/mL | 500 µg/mL (≈ 1570 µM) | 500 µg/mL (≈ 1570 µM) | 500 µg/mL (≈ 1570 µM) | – | – | – | – | – | – | –
O=C(Nc1ccccc1)N1CN2CN(C/C=C\Cl)CN(C2)C1 [Example 1, N-Phenyl-3-Carboxamide-7-Cis(3-Chloro-2-Propenyl)-1,3,5,7-Tetraazabicyclo(3,3,1)Nonane] | 50 µg/mL (≈ 155 µM) | 25 µg/mL (≈ 77.7 µM) | 50 µg/mL (≈ 155 µM) | 50 µg/mL (≈ 155 µM) | 250 µg/mL (≈ 777 µM) | 250 µg/mL (≈ 777 µM) | 500 µg/mL (≈ 1550 µM) | 250 µg/mL (≈ 777 µM) | – | – | – | – | – | – | –
O=C(NC1CCCCC1)N1CN2CN(C/C=C\Cl)CN(C2)C1 [Example 3 h)] | 75 µg/mL (≈ 229 µM) | 25 µg/mL (≈ 76.3 µM) | 50 µg/mL (≈ 153 µM) | 50 µg/mL (≈ 153 µM) | 250 µg/mL (≈ 763 µM) | 250 µg/mL (≈ 763 µM) | 500 µg/mL (≈ 1530 µM) | 250 µg/mL (≈ 763 µM) | – | – | – | – | – | – | –
S=C(Nc1ccc(Br)cc1)N1CN2CN(C/C=C\Cl)CN(C2)C1 [Example 3 k)] | 250 µg/mL (≈ 600 µM) | 75 µg/mL (≈ 180 µM) | 100 µg/mL (≈ 240 µM) | 250 µg/mL (≈ 600 µM) | 250 µg/mL (≈ 600 µM) | 500 µg/mL (≈ 1200 µM) | 500 µg/mL (≈ 1200 µM) | 250 µg/mL (≈ 600 µM) | – | – | – | – | – | – | –
O=C(Nc1ccc(Cl)cc1)N1CN2CN(C/C=C\Cl)CN(C2)C1 [Example 3 d)] | 75 µg/mL (≈ 211 µM) | 25 µg/mL (≈ 70.2 µM) | 75 µg/mL (≈ 211 µM) | 100 µg/mL (≈ 281 µM) | 250 µg/mL (≈ 702 µM) | 250 µg/mL (≈ 702 µM) | 500 µg/mL (≈ 1400 µM) | 250 µg/mL (≈ 702 µM) | – | – | – | – | – | – | –
Cc1ccc(S(=O)(=O)NC(=O)N2CN3CN(C/C=C\Cl)CN(C3)C2)cc1 [Example 3 i)] | 250 µg/mL (≈ 625 µM) | 50 µg/mL (≈ 125 µM) | 250 µg/mL (≈ 625 µM) | 500 µg/mL (≈ 1250 µM) | 500 µg/mL (≈ 1250 µM) | 500 µg/mL (≈ 1250 µM) | > 500 µg/mL | 500 µg/mL (≈ 1250 µM) | – | – | – | – | – | – | –
Cc1ccc(NC(=S)N2CN3CN(C/C=C\Cl)CN(C3)C2)cc1C [Example 3 m)] | 50 µg/mL (≈ 137 µM) | 50 µg/mL (≈ 137 µM) | 75 µg/mL (≈ 205 µM) | 100 µg/mL (≈ 273 µM) | 250 µg/mL (≈ 683 µM) | 250 µg/mL (≈ 683 µM) | 250 µg/mL (≈ 683 µM) | 100 µg/mL (≈ 273 µM) | – | – | – | – | – | – | –
COc1ccc(NC(=O)N2CN3CN(C/C=C\Cl)CN(C3)C2)cc1 [Example 3 a)] | 50 µg/mL (≈ 142 µM) | 10 µg/mL (≈ 28.4 µM) | 75 µg/mL (≈ 213 µM) | 75 µg/mL (≈ 213 µM) | 250 µg/mL (≈ 711 µM) | 250 µg/mL (≈ 711 µM) | 500 µg/mL (≈ 1420 µM) | 250 µg/mL (≈ 711 µM) | – | – | – | – | – | – | –
S=C(Nc1ccc(Cl)cc1)N1CN2CN(C/C=C\Cl)CN(C2)C1 [Example 3 j)] | 75 µg/mL (≈ 201 µM) | 50 µg/mL (≈ 134 µM) | 75 µg/mL (≈ 201 µM) | 100 µg/mL (≈ 269 µM) | 250 µg/mL (≈ 671 µM) | 250 µg/mL (≈ 671 µM) | 250 µg/mL (≈ 671 µM) | 100 µg/mL (≈ 269 µM) | – | – | – | – | – | – | –
CCCCNC(=O)N1CN2CN(C/C=C\Cl)CN(C2)C1 [Example 3 n)] | 50 µg/mL (≈ 166 µM) | 25 µg/mL (≈ 82.8 µM) | 50 µg/mL (≈ 166 µM) | 75 µg/mL (≈ 248 µM) | 250 µg/mL (≈ 828 µM) | 250 µg/mL (≈ 828 µM) | 250 µg/mL (≈ 828 µM) | 250 µg/mL (≈ 828 µM) | – | – | – | – | – | – | –
S=C(Nc1ccc(Cl)c(Cl)c1)N1CN2CN(C/C=C\Cl)CN(C2)C1 [Example 3 l)] | 50 µg/mL (≈ 123 µM) | 75 µg/mL (≈ 184 µM) | 100 µg/mL (≈ 246 µM) | 100 µg/mL (≈ 246 µM) | 250 µg/mL (≈ 615 µM) | 250 µg/mL (≈ 615 µM) | 250 µg/mL (≈ 615 µM) | 100 µg/mL (≈ 246 µM) | – | – | – | – | – | – | –
Cc1ccc(C)c(NC(=O)N2CN3CN(C/C=C\Cl)CN(C3)C2)c1 [Example 3 c)] | 75 µg/mL (≈ 214 µM) | 50 µg/mL (≈ 143 µM) | 75 µg/mL (≈ 214 µM) | 75 µg/mL (≈ 214 µM) | 250 µg/mL (≈ 715 µM) | 250 µg/mL (≈ 715 µM) | 500 µg/mL (≈ 1430 µM) | 250 µg/mL (≈ 715 µM) | – | – | – | – | – | – | –

From patent USRE29225E, “N-substituted derivatives of 3-carboxamide and 3-thiocarboxamide” (The Dow Chemical Company, priority 1976, dated 1977)
